# System: mesenteric arteries
# Assay: Vessel reactivity ex vivo
# Design: species or system mouse
# Details: 10^−11–10^−8 M
# Method: Vessel reactivity ex vivo was analyzed as described, [40]. Briefly, male mice were sacrificed at five months and their mesenteric arteries were isolated and mounted onto glass capillaries in an artereograph chamber filled with cold oxygenated Krebs solution (118.6 mM NaCl, 4.7 mM KCl, 1.2 mM KH2PO4, 1.2 mM MgSO4, 25.1 mM NaHCO3, 26 µM EDTA, 0.18% glucose, 2.5 mM CaCl2). The arteries were constantly perfused intraluminally with Krebs solution at 30 mmHg. After 45 minutes of equilibration vascular reactivity was measured in response to Norepinephrine (Sigma A-0937, 10^−9–10^−5 M), Acetylcholine (Sigma A-6625, 10^−9–10^−4 M), Sodium Nitroprusside (Calbiochem 56538, 10^−9–10^−4 M), Endothelin-1 (American Peptide Company 88-1-10, 10^−11–10^−8 M) and AI, (American Peptide Company 12-1-10, 10^−8–10^−4 M). Drugs were added extraluminally with a 30 min washout period in between each drug, during which the arteries were able to re-equilibrate to a baseline. To test vasodilatation arteries were pre-contracted with NE to 70% of their equilibration diameter. At least 3 concentration response curves were conducted for each vessel and at least 6 animals were studied for each genotype.
substance,measurement,setting,value
endothelin-1 [ET-1],vessel reactivity versus WT mice,mesenteric arteries of CathA^S190A and Scpep1^−/− mice,higher
same,vessel reactivity versus all other groups of mice,mesenteric arteries of CathA^S190A/Scpep1^−/− mice,significantly higher

# From publication PMC3937211, “Serine Carboxypeptidase SCPEP1 and Cathepsin A Play Complementary Roles in Regulation of Vasoconstriction via Inactivation of Endothelin-1” (PLoS Genetics, 2014)
